Experimental data as given in patent publication US9045481B2 (priority 2012, dated 2015).

Assays:
[1] = CNS penetration across the blood brain barrier; format: in vivo, mice
Experimental: Mice are dosed with compounds. Brain to blood ratios are determined by HPLC and LC/MS/MS analysis following oral administration of the test compounds in mice.

mu opioid receptor (mOR) = molecular target: T1, mu opioid receptor (mOR) (Homo sapiens, UniProt P35372); experiment: Mu opioid receptor radioligand binding; conditions: called weak affinity; read-out: Affinity at mu opioid receptors
T1 construct: expressed in transfected cells; host or cells: CHO or HEK293
Experimental: Established radioligand binding methods are used to evaluate the ability of the compounds to block reuptake of serotonin and dopamine in membrane preparations of synaptosomes. Equilibrium binding affinity values is determined for each compound at opioid receptors (μ and κ subtypes) and biogenic amine transporters (DAT and SERT). Where possible, binding experiments utilize membranes derived from CHO or HEK293 cells engineered to overexpress the human form of the receptor or transporter of interest. Radiolabeling of opioid receptors, and biogenic amine transporters utilizes conventional radioligands, buffers and incubation conditions according to published assays.
Test compounds, reference compounds and the radioligand (Kd value) are added to binding buffer. Assays are run with test or reference compound over a range of concentration (0.0001-10 uM) in triplicate using a 96-well sample plate containing radioligands specific for the target receptor or transporter. […] Bound radioactivity is counted in a Microbeta scintillation counter. Total bound radioactivity is estimated from triplicate wells containing no test or reference compound, together with nonspecific binding and filter blanks. The average bound radioactivity in the presence of the test compounds is expressed % inhibition=100%−% radioactivity bound. […]

a3b4 nAChRs = a3b4 nAChRs (Homo sapiens, UniProt P30926+P32297); experiment: Relative potency at a3b4 nAChRs (epibatidine-induced calcium response), cell line not stated; format: cell-based
Experimental: Nicotinic functional assays are performed using the Molecular Devices FLIPR® Calcium 5 Assay Kit. HEK293 cells overexpressing a3β4, a4β2 or α7 (50,000 cells per well in 100 μl growth media) and are plated in clear bottom black walled 96-well microplates and incubated for 24-48 hours at 37° C., 5% CO2 until a 80-90% confluent monolayer is formed. On the day of the assay, 100 μl of Calcium 5 Dye is added to each well. Following addition of dye, cells are incubated at 25° C. for 60 minutes. Following dye loading, 50 μl of a 5× solution of reference or test compound of appropriate concentration range (0.01-30 μM), prepared in 20 mM HEPES pH 7.4 in HBSS, is added to each well. Plates are then transferred to the Molecular Devices Flexstation® which transfers 50 μL of a 5× solution (500 nM) of epibatine to each well to initiate the Ca+2 flux. Additional wells (in quadruplicate) are prepared with no added test or reference ligand for measurement of 100% flux. The RFU (relative fluorescence units) in the presence of the test or reference compounds is then expressed on the percent scale. The percent inhibition of epibatidine induced Ca^+2 flux is calculated as follows: % inhibition=100%−% RFU (relative fluorescence units). The IC50 values for reference and test compounds are obtained by fitting normalized RFU data using Graphpad Prism software.

Chain of a3b4 nAChRs (P30926 22-498): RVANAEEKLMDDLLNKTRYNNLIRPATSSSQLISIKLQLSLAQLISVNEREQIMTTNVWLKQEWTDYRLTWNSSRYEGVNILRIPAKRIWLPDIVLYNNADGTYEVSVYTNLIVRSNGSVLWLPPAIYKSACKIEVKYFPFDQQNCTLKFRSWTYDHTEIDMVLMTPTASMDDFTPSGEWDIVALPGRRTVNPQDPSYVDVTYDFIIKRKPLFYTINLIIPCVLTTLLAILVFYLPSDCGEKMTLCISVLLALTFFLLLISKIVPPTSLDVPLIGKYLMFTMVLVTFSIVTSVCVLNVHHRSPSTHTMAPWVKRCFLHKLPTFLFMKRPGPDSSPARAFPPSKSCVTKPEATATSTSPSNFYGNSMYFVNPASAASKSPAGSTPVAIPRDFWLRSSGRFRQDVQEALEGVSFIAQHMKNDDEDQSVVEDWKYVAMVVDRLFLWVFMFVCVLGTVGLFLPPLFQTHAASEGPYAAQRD
Chain of a3b4 nAChRs (P32297 32-505): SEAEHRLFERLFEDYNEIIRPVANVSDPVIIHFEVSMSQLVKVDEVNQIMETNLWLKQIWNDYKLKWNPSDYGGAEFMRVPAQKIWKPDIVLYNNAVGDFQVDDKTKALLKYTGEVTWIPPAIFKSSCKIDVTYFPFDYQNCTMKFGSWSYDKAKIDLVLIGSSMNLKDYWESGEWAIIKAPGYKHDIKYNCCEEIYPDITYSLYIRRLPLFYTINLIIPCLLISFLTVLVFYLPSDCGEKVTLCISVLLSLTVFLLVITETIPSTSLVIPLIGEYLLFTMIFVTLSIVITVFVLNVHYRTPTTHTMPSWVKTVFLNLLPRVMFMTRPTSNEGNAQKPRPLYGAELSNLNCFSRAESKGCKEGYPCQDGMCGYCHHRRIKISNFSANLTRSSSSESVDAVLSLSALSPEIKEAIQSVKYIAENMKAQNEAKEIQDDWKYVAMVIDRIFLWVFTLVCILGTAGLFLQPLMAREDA
T1 sequence (P35372 whole entry): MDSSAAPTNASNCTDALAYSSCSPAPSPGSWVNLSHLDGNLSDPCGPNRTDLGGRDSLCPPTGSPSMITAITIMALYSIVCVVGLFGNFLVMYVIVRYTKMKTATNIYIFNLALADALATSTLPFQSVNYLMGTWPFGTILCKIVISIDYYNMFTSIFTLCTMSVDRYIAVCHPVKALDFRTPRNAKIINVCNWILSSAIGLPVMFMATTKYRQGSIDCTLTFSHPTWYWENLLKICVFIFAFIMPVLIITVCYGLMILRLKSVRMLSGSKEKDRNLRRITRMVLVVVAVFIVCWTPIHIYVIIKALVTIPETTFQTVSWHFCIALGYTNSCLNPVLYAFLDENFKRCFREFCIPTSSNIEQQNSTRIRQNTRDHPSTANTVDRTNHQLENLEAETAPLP

Compound | Crossing of the BBB / concentration in brain [1] | Ki (mu opioid receptor (mOR)) [µM] | Potency as inhibitor of the epibatidine-induced calcium response in a3b4 nAChRs, in words (a3b4 nAChRs; compared with 18-MC and noribogaine) | Ratio from 18-MC (relative potency at a3b4 nAChRs) (a3b4 nAChRs; ratio to 18-MC = 1, lower is more potent)
CC[C@H]1CC2C[C@H]3c4[nH]c5ccc(O)cc5c4CCN(C2)C13 [Noribogaine, 12-hydroxyibogamine] | cross the BBB and reach micromolar concentrations in brain | 0.9 |  | 
Ibogaine |  |  | more potent inhibitors than 18-MC | 
COCC[C@H]1CC2CN3CCc4c([nH]c5ccccc45)[C@](C(=O)OC)(C2)[C@H]13 [Compound 18-MC, 18-methoxycoronaridine] | cross the BBB and reach micromolar concentrations in brain |  |  | 1
